Results on seven compounds are retold here after patent publication US11896589B2, “Diazinyl amino acridines and medical uses thereof” (MyCural Therapeutics AB, priority 2018, dated 2024).

Where a name gives a salt, the structure may show the parent alone.

One assay deals with T1, MYCbHLHZip (Homo sapiens, UniProt P01106).
T1 construct: An amino coupling procedure was used to immobilize MYCbHLHZip protein on a CM5 sensor chip
The experiment in a line: Assay 2B MYC SPR assay. It is filed as binding. Conditions: equilibrium binding experiments. On the procedure:
FIG. 3: A) SPR assay to determine affinity of Example 1 to MYC. MYC bHLHZip protein was immobilized by aminocoupling on a CM5 sensor chip. Example 1 was injected at various concentrations in a kinetic experiment. The reference surface was subtracted from the analyte surface to generate a sensorgram. […] B) Four MYC equilibrium binding experiments with Example 1 summarized in an equilibrium binding plot. […] Equilibrium binding experiments of MYC with Example 2 and control compound (non-binder) were plotted as well. Assay 2B. MYC SPR Assay To analyze the direct binding of compounds to MYC, the direct binding of compounds to MYC was detected by surface plasmon resonance (SPR) as described above (Biological example 1—Assay 1B). An amino coupling procedure was used to immobilize MYCbHLHZip protein on a CM5 sensor chip (GE Healthcare) resulting in immobilization levels of approximately 800 respectively 1000 RU. The compounds were injected at different concentrations, one at a time, over the surface for 50-80 seconds with a flow rate of 30 μl/min. Afterwards the compounds were allowed to dissociate for 240 seconds in running buffer (137 mM NaCl, 2.7 mM KCl, 10 mM Na2HPO4, 1.8 mM KH2PO4, 0.005% Tween-20, 1% DMSO, pH 7.4). To remove all remaining analyte the surface was regenerated with 2M Urea for 30 seconds and thereafter 1M NaCl, 2.7 mM KCl, 10 mM Na2HPO4, 1.8 mM KH2PO4, 1% DMSO, pH 7.4 for 30 seconds. Sensorgrams were generated by subtraction of the reference (blank immobilized) surface. Binding responses were related to respective compounds' Rmax. Rmax is the maximum response of a compound when it binds with a 1:1 stochiometry to the protein; Rmax=(MW analyte/MW ligand)×immobilized ligand level on the chip (RU) x stoichiometry (1:1). Kinetic experiments were carried out where recombinant MYC bHLHZip was immobilized on the chip and different concentrations of Example 1 were injected as above. […] Example 2-6 were analyzed for their MYC binding properties by equilibrium binding experiments as described for example 1.

The test system of assay [1] is MYCN-amplified neuroblastoma cells (SK-N-DZ, Kelly, IMR-32). The experiment in a line: Assay 5A neuroblastoma cell growth (WST-1), MYCN-amplified. It is filed as cell-based. Conditions: Homo sapiens. The procedure: (§1) FIG. 6: A-B) Neuroblastoma cell lines with (SK-N-DZ, Kelly and IMR-32) or without (SK-N-F1, SK-N-RA and SK-N-AS) MYCN-amplification were exposed to different concentrations of Example 1, Example 2 and control compound, respectively, for 48 hours. Cell growth and viability was estimated by measuring metabolic activity. C) Growth of TGR-1 (wt), HO15.19 (MYC knockout) and HOmyc3 (MYC reconstituted HO15.19) Rat1 fibroblasts, as measured by the WST-1 assay after treatment with Example 1. Data are shown as mean±standard deviation of 3-5 biological experiments, each with 3 technical repeats.
(§2) Assay 5A: Neuroblastoma Cell Growth
(§3) Neuroblastoma cell lines with (SK-N-DZ, Kelly and IMR-32) or without (SK-N-F1, SK-N-RA and SK-N-AS) MYCN-amplification were exposed to different concentrations of example compounds for 48 hours. Cell growth and viability was estimated by measuring metabolic activity by incubating cells in triplicates with WST-1 (Roche) in medium at 37° C. and 5% CO2 for 2 hours after which absorbance was measured with an Omega Fluostar (BMG Labtech) in a 96 well plate format.

Assay [2] has as its target T2, MYC:MAX (MYC-GLuc-C + MAX-GLuc-N) in HEK293 cells (Homo sapiens, UniProt P01106).
T2 construct: expressed in transfected cells; host or cells: HEK293 (also COS-7)
The experiment in a line: Assay 3C GLuc complementation assay. Type of assay: cell-based. Conditions: HEK293. On the procedure: FIG. 4: A) Endogenous MYC:MAX (upper panel) and FRA1:JUN (lower panel) interactions as visualized as fluorescent red dots by isPLA. Nuclei were counterstained with DAPI (blue). Cells were treated with 10 μM of indicated compounds for 16 hours and subjected to isPLA using pairs of MYC and MAX and of FRA1 and JUN antibodies, respectively. As negative control, primary antibody pairs but only one oligo-conjugated secondary antibody was used. B) Quantification of MYC:MAX and C) FRA1:JUN isPLA, representing an average number of nuclear dots per cell from three microscopic fields normalized to corresponding values for DMSO-treated cells. […] 1st-4th lanes from top; coimmunoprecipitated MAX, immunoprecipitated MYC, total levels of MAX and ACTIN, respectively, as determined by western blot analysis. E) MYC:MAX GLuc assay in cells. […] 24 hours later cells were treated with […] of Example 1, Example 2 and control compound for 16 hours and thereafter analyzed in a dual luciferase assay. The ratio of Gaussia/Firefly luciferase luminescence were calculated and normalized to DMSO-treated cells.
The protein fragment complementation assay using the Gaussia luciferase (GLuc) has been described (Remy, I. & Michnick, S. W. A highly sensitive protein-protein interaction assay based on Gaussia luciferase. Nat Methods 3, 977-979, doi:10.1038/nmeth979 (2006)). […] 24 hours later cells were treated with compound or DMSO. After another 17 hours the cells were harvested and lyzed in passive lysis buffer (Promega) supplemented with complete protease inhibitor (Roche). After 60 min incubation at room temperature 20 μM D-luciferin was added (substrate of Firefly luciferase) and luminescence was measured in a Lumat LB9501 (Berthold) or OmegaFluostar (BMG Labtech) luminometer. Directly after, the Gaussia luciferase substrate Coelenterazine (Promega) was added to a final concentration of 20 μM and the luciferase activity was measured. The ratio between Gaussia and Firefly luciferase values were calculated and normalized to DMSO-treated control cells.

The subject of assay [3] is Tgr and H0Myc3 Rat1 fibroblast cells. The experiment in a line: Assay 5B Tgr cell growth (WST-1), MYC expressing. It is filed as cell-based, rat. Conditions: Tgr/H0Myc3 vs H015.19. On the procedure:
as §1
Assay 5B: Tgr Cell Growth
Tgr cells were treated at 37° C. and 5% CO2 at 48 hours with Example and Example 2. H015.19 is a MYC null rat cell line derived from Tgr1 (parental cells), while H0Myc3 cells were generated from the MYC null cells by reconstitution of a MYC gene(Mateyak, M. K., Obaya, A. J., Adachi, S. & Sedivy, J. M. Phenotypes of c-Myc-deficient rat fibroblasts isolated by targeted homologous recombination. Cell Growth Differ 8, 1039-1048 (1997)).

In assay [4] the test system is non-MYCN-amplified neuroblastoma cells (SK-N-F1, SK-N-RA, SK-N-AS). Nature of the assay: Assay 5A neuroblastoma cell growth (WST-1), non-MYCN-amplified. It is filed as cell-based. Conditions: Homo sapiens, SK-N-AS. On the procedure:
as §1, §2, §3

T1 sequence (P01106 368-449 limits assumed): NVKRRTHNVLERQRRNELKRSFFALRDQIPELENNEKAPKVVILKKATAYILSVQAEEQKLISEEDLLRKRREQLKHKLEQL
T2 sequence (P01106 whole entry): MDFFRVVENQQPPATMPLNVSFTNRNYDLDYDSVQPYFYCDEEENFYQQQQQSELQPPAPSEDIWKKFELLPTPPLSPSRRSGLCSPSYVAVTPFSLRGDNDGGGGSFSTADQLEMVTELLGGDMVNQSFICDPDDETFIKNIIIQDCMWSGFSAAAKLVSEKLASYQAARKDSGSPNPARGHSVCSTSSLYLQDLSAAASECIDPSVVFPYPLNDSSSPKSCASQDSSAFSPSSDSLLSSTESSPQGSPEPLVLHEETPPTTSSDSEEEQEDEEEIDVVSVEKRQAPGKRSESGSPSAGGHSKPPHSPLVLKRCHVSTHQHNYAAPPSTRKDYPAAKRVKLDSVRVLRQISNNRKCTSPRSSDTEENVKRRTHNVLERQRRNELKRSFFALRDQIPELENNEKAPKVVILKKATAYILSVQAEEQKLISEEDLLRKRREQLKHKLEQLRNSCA

In the case of `CCOc1ccc2nc3cc(/N=N/c4cc(C)c(O)cc4C)ccc3c(N)c2c1` [Example 2, 4-((9-amino-7-ethoxyacridin-3-yl)diazenyl)-3,6-dimethylphenol], on MYCbHLHZip, the “Binding relative to Rmax” value worked out at 1.2 Response Units. The GI50 in assay [1] (first run, 48 hours) was 4 µM; in assay [1] (second run), 2.5 µM; in assay [4] (48 h, first run), 12.5 µM; in assay [4] (second run), 10 µM. In assay [2], the inhibition at 10 µM was 65%. Also, the “discrimination between cells dependent on MYC status” value in assay [3] is listed as “discriminated between cells dependent on MYC status”.

`CCOc1ccc2nc3cc(/N=N/c4c(C)cc(O)cc4C)ccc3c(N)c2c1` [Example 3, 4-((9-amino-7-ethoxyacridin-3-yl)diazenyl)-3,5-dimethylphenol hydrate]: on MYCbHLHZip, the “Binding relative to Rmax” value was found to be 1.5 Response Units. The concentration for 50% growth inhibition (GI50) was 2 µM in assay [1] (second run) and > 25 µM in assay [4] (second run).

Take `CCOc1ccc2nc3cc(/N=N/c4cc(C)c(O)c(C)c4)ccc3c(N)c2c1` [Example 6, 4-((9-amino-7-ethoxyacridin-3-yl)diazenyl)-2,6-dimethylphenol]: at MYCbHLHZip, the “Binding relative to Rmax” value is given as 0.8 Response Units. For the same compound, the values for the concentration for 50% growth inhibition (GI50) in assay [1] (second run) and in assay [4] (second run) were 1 µM and > 25 µM, respectively.

As to `CCOc1ccc2nc3cc(/N=N/c4ccc(O)c(CNCCN(C)C)c4)ccc3c(N)c2c1` [Example 8, 4-[(E)-(9-amino-7-ethoxy-acridin-3-yl)azo]-2-[[2-(dimethylamino)ethylamino]methyl]phenol hydrochloride], the concentration for 50% growth inhibition (GI50) in assay [1] (second run) turned out to be 4 µM; in assay [4] (second run) it was 10 µM.

Consider `CCOc1ccc2nc3cc(/N=N/c4ccc(O)c(CN(C)CCN(C)C)c4)ccc3c(N)c2c1` [Example 9, 4-[(E)-(9-amino-7-ethoxy-acridin-3-yl)azo]-2-[[2-(dimethylamino)ethyl-methyl-amino]methyl]phenol], for which the figures for the GI50 in assay [1] (second run) and in assay [4] (second run) were 6 µM and 11 µM, respectively.

Take `CCOc1ccc2nc3cc(/N=N/c4ccc(O)c(CO)c4)ccc3c(N)c2c1` [Example 10, 4-[(E)-2-(9-amino-7-ethoxyacridin-3-yl)diazen-1-yl]-2-(hydroxymethyl)phenol]: halving of growth in assay [1] (second run) (GI50) required 15 µM.

In turn, `CCOc1ccc2nc3cc(/N=N/c4ccc(O)c(CN(C)C)c4)ccc3c(N)c2c1` [Example 12, 4-[(E)-2-(9-amino-7-ethoxyacridin-3-yl)diazen-1-yl]-2-((dimethylamino)methyl)phenol] displayed a GI50 in assay [1] (second run) of 25 µM.
